ChEMBL document CHEMBL4024703, “Recent Progress in the Development of Transglutaminase 2 (TGase2) Inhibitors” (J Med Chem, 2017)
pIC50: −log10 of the molar value. Blank lines part the entries; values can stand above or below the compound they belong to.

How the values were obtained:
Homo sapiens [1] = species on record: Homo sapiens; experiment: Selectivity ratio of IC50 for human TG1 to IC50 for human TG2
Homo sapiens [2] = species on record: Homo sapiens; experiment: Selectivity ratio of IC50 for human TG3 to IC50 for human TG2
Homo sapiens [3] = species on record: Homo sapiens; experiment: Selectivity ratio of IC50 for human F13a to IC50 for human TG2
Homo sapiens [4] = species on record: Homo sapiens; experiment: Selectivity ratio of IC50 for human TG6 to IC50 for human TG2
Mus musculus [5] = experiment: Antihypertensive activity in C57BL/6 mouse angiotensin 2-induced hypertensive nephrosclerosis model assessed as reduction in collagen deposition in kidney at 25 mg/kg/day administered sc with angiotensin 2 for 14 days by Sirius red/collagen staining based assay; format: functional; details: C57BL/6, sc, 336 h
[6] = biological target: T1, Protein-glutamine gamma-glutamyltransferase (Homo sapiens, UniProt P21980); experiment: Inhibition of recombinant human TG2 by fluorescence assay
T1 sequence (P21980 whole entry): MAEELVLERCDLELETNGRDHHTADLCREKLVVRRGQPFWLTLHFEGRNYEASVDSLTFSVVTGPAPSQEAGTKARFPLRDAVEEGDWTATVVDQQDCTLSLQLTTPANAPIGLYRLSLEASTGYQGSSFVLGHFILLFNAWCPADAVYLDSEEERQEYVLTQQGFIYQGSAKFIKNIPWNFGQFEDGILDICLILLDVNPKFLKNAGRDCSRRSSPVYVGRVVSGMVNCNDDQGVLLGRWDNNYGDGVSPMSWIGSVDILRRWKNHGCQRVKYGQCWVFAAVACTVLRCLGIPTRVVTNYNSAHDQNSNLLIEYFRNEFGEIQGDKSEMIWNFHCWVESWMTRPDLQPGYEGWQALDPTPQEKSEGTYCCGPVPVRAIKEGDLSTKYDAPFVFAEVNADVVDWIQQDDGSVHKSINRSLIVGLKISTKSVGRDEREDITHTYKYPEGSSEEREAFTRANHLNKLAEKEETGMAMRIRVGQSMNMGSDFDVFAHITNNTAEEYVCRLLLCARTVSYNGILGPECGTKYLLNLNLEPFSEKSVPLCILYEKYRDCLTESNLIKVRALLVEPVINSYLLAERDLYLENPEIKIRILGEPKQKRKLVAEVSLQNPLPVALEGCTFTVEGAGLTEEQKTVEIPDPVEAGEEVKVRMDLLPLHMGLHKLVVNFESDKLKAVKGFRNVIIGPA

Mus musculus [7] = experiment: Antihypertensive activity in C57BL/6 mouse angiotensin 2-induced hypertensive nephrosclerosis model assessed as reduction in collagen deposition in blood vessels at 25 mg/kg/day administered sc with angiotensin 2 for 14 days by Sirius red/collagen staining based assay; format: functional; details: C57BL/6, sc, 336 h
[8] = Metabolic stability in Wistar rat blood plasma after 45 mins by HPLC analysis; format: ADME, cell-free; details: read-out: Stability
[9] = Metabolic stability in Wistar rat blood plasma after 15 mins by HPLC analysis; format: ADME, cell-free; details: read-out: Stability

Ratio IC50 (Homo sapiens [1]): > 100
Ratio IC50 (Homo sapiens [2]): > 100
Ratio IC50 (Homo sapiens [3]): > 100
Ratio IC50 (Homo sapiens [4]): > 100
SMILES: CCC(CC)CNC(=O)Cn1cccc(NC(=O)[C@H](CC/C=C/C(=O)OC)NC(=O)c2cncn2C)c1=O

pIC50 [6]: 8.22
SMILES: C=CC(=O)NCC(=O)N1CCN(S(=O)(=O)c2cccc3c(N(C)C)cccc23)CC1
inhibition in vivo at 25 mg/kg/day (Mus musculus [5]): 40%
inhibition in vivo at 25 mg/kg/day (Mus musculus [7]): 45%

remaining at 0.75 h [8]: 29%
remaining at 0.25 h [9]: 65%
SMILES: C=CC(=O)NCCCC[C@H](NC(=O)Cc1ccccc1)C(=O)N1CCN(c2cccc(C)n2)CC1
